The target of one assay is T1, human NaPi-IIb (Homo sapiens, UniProt O95436).
T1 construct: expressed in transfected cells
T1 sequence (O95436 1-690): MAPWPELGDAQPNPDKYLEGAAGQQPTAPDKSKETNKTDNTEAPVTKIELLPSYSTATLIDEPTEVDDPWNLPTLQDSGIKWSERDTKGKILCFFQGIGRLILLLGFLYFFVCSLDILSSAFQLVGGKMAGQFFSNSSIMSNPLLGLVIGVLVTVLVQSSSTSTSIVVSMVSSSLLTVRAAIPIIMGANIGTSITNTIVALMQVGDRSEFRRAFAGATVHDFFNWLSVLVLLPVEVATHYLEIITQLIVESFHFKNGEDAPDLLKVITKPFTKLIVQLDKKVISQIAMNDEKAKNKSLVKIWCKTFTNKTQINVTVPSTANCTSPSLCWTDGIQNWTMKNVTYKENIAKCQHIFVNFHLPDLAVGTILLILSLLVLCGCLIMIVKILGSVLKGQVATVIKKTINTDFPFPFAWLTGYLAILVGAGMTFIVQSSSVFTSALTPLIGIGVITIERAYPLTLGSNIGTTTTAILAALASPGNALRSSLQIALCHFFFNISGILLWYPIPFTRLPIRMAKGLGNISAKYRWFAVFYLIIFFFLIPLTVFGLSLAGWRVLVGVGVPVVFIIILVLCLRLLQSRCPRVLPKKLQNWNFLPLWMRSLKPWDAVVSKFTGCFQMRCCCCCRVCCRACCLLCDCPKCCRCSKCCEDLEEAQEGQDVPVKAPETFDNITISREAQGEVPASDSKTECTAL
Nature of the assay: Inhibitory effect on 33PO4 uptake into human NaPi-IIb-expressing CHO cells. The class given is cell-based. As to conditions: read-out: IC50. Summed up: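 Stable human NaPi-IIb CHO line (G418-selected), plated and cultured overnight; ³³PO4 added in buffer A and uptake run at room temperature. Cells washed with ice-cold buffer A, then uptake counted by liquid scintillation.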
`COc1c(C#N)ncnc1-c1cc(C(F)(F)F)ccc1NC(=O)C1=C(O)[C@@]2(C)CCCN2N(Cc2cccc(F)c2F)C1=O` [Example 25]: the IC50 was 10.1 µM. For `C[C@]12CCCN1N(Cc1cccc(F)c1F)C(=O)C(C(=O)Nc1ccc(C(F)(F)F)cc1-c1cnc(C#N)c([N+](=O)[O-])c1)=C2O` [Example 99, (4aR)—N-[2-(6-Cyano-5-nitropyridin-3-yl)-4-(trifluoromethyl)phenyl]-1-[(2,3-difluorophenyl)methyl]-4-hydroxy-4a-methyl-2-oxo-6,7-dihydro-5H-pyrrolo[1,2-b]pyridazine-3-carboxamide], the IC50 was 4.3 µM. For the compound `CN1N(Cc2ccc(OCC(=O)N3CCOCC3)c(F)c2F)C(=O)C(C(=O)Nc2ccc(C(F)(F)F)cc2-c2cc(C(F)(F)F)ncn2)=C(O)C12CCC2` [Example 336, 8-[[2,3-Difluoro-4-(2-morpholin-2-oxo-ethoxy)phenyl]methyl]-5-hydroxy-9-methyl-7-oxo-N-[4-(trifluoromethyl)-2-[6-(trifluoromethyl)pyrimidin-4-yl]phenyl]-8,9-diazaspiro[3.5]non-5-ene-6-carboxamide], the IC50 came out at 19.7 µM. Regarding `C[C@]12CCCN1N(Cc1cccc(F)c1F)C(=O)C(C(=O)Nc1ccc(C(F)(F)F)cc1-c1cnc(Cl)c(C#N)c1)=C2O` [Example 68, (4aR)—N-[2-(6-Chloro-5-cyanopyridin-3-yl)-4-(trifluoromethyl)phenyl]-1-[(2,3-difluorophenyl)methyl]-4-hydroxy-4a-methyl-2-oxo-6,7-dihydro-5H-pyrrolo[1,2-b]pyridazine-3-carboxamide], the IC50 was 2.6 µM. Consider `CN1N(Cc2ccc(OCCN3CCOCC3)c(F)c2F)C(=O)C(C(=O)Nc2ccc(C(F)(F)F)cc2-c2ncnc(C(F)(F)F)c2Cl)=C(O)C12CCC2` [Example 284], for which the IC50 was determined as 7.8 µM. For the compound `C[C@]12CCCN1N(Cc1c(F)cc(C#CCN3CCOCC3)cc1F)C(=O)C(C(=O)Nc1ccc(C(F)(F)F)cc1-c1ccc(C(F)(F)F)nc1)=C2O` [Example 132], the IC50 came to 5 µM. Turning to `C[C@]12CCCN1N(Cc1cccc(F)c1F)C(=O)C(C(=O)Nc1ccc(C(F)(F)F)cc1-c1cc(Cl)cnc1Cl)=C2O` [Example 84], the IC50 came out at 7.9 µM. For `C[C@@]12CCCN1N(Cc1ccc(OCCN3CCOCC3)c(F)c1F)C(=O)C(C(=O)Nc1ccc(Cl)cc1-c1cc(C(F)(F)F)ncn1)=C2O` [Example 107], the IC50 was 25.9 µM. On to `CN1N(Cc2ccc(OCCN3C4CCC3COC4)c(F)c2F)C(=O)C(C(=O)Nc2ccc(C(F)(F)F)cc2-c2cc(C(F)(F)F)ncn2)=C(O)C12CCC2` [Example 340], for which the IC50 came out at 10 µM.

Turning to `CCC1(CC)C(O)=C(C(=O)Nc2ccc(Cl)cc2-c2ccc(C(F)(F)F)nc2)C(=O)N(Cc2ccc(OCCN3CCOCC3)c(F)c2F)N1C` [Example 294], the IC50 is 13.4 µM. As to `C[C@]12CCCN1N(Cc1cccc(F)c1F)C(=O)C(C(=O)Nc1ccc(C(F)(F)F)cc1-c1cnc(Cl)nc1)=C2O` [Example 67], the IC50 is 2 µM. As for `CC(C)[C@H]1C(O)=C(C(=O)Nc2ccc(Cl)cc2-c2ccc(C(F)(F)F)nc2)C(=O)N(Cc2ccc(OCCN3CCOCC3)c(F)c2F)N1C` [Example 281], the IC50 came out at 18.8 µM. `CN1N(Cc2cccc(F)c2F)C(=O)C(C(=O)Nc2ccc(Br)c(C(F)(F)F)n2)=C(O)C12CCCC2` [Example 263]: the IC50 came to 3 µM. As to `C[C@]12CCCN1N(Cc1ccc(C#CCCCCC(=O)O)c(F)c1F)C(=O)C(C(=O)Nc1ccc(C(F)(F)F)cc1-c1cncc(C(F)(F)F)c1)=C2O` [Example 119, 7-[4-[[(4aR)-4-Hydroxy-4a-methyl-2-oxo-3-[[4-(trifluoromethyl)-2-[5-(trifluoromethyl)pyridin-3-yl]phenyl]carbamoyl]-6,7-dihydro-5H-pyrrolo[1,2-b]pyridazin-1-yl]methyl]-2,3-difluorophenyl]hept-6-ynoate], the IC50 was found to be 9.2 µM. Regarding `C[C@@H]1COC[C@H](C)N1CCOc1ccc(CN2C(=O)C(C(=O)Nc3ccc(C(F)(F)F)cc3-c3cc(C(F)(F)F)ncn3)=C(O)C3(CCC3)N2C)c(F)c1F` [Example 344], the IC50 amounted to 13.7 µM. In the case of `CN1[C@@H](C(C)(C)C)C(O)=C(C(=O)Nc2ccc(Cl)cc2-c2cc(C(F)(F)F)ncn2)C(=O)N1Cc1ccc(OCCN2CCOCC2)c(F)c1F` [Example 265, (3S)-3-tert-Butyl-N-[4-chloro-2-[6-(trifluoromethyl)pyrimidin-4-yl]phenyl]-1-[[2,3-difluoro-4-(2-morpholin-4-ylethoxy)phenyl]methyl]-4-hydroxy-2-methyl-6-oxo-3H-pyridazine-5-carboxamide], the IC50 was found to be 13.3 µM. In the case of `C[C@]12CCCN1N(Cc1c(F)cc(OCCCCCCOC[C@@H](O)CO)cc1F)C(=O)C(C(=O)Nc1ccc(C(F)(F)F)cc1-c1ccc(C(F)(F)F)nc1)=C2O` [Example 154], the IC50 worked out at 2.5 µM.

Regarding `COc1cccc(-c2cc(C(F)(F)F)ccc2NC(=O)C2=C(O)[C@@]3(C)CCCN3N(Cc3ccc(C#CCCCCO)c(F)c3F)C2=O)c1OC` [Example 135], the IC50 was determined as 12.3 µM. As for `C[C@]12CCCN1N(Cc1cccc(F)c1F)C(=O)C(C(=O)Nc1ccc(C(F)(F)F)cc1-c1cncc(C#N)c1)=C2O` [Example 82], the IC50 turned out to be 11.1 µM. `CN(CCO)CCOc1ccc(CN2C(=O)C(C(=O)Nc3ccc(C(F)(F)F)cc3-c3cc(C(F)(F)F)ncn3)=C(O)C3(CCC3)N2C)c(F)c1F` [Example 347]: the IC50 was determined as 25.2 µM. In the case of `CC1(C)CC[C@]2(C)C(O)=C(C(=O)Nc3cc(C(F)(F)F)ccc3-c3ccc(C(F)(F)F)nc3)C(=O)N(Cc3cccc(F)c3F)N12` [Example 63], the IC50 was found to be 8.7 µM.

Staying with this assay, now noted: read-out: IC50 against 33PO4 uptake into human NaPi-IIb-expressing cells.
On to `CN1N(Cc2ccc(OCCCCOC[C@H](O)CO)c(F)c2F)C(=O)C(C(=O)Nc2ccc(C(F)(F)F)cc2-c2ccc(C(F)(F)F)nc2)=C(O)C12CCC2` [Example 384], for which the IC50 worked out at 11 µM. For `COCCN(C)CCNc1ccc(CN2C(=O)C(C(=O)Nc3ccc(C(F)(F)F)cc3-c3cc(C(F)(F)F)ncn3)=C(O)C3(CCCC3)N2C)c(F)c1F` [Example 417, 7-(2,3-Difluoro-4-((2-((2-methoxyethyl)(methyl)amino)ethyl)amino)benzyl)-10-hydroxy-6-methyl-8-oxo-N-(4-(trifluoromethyl)-2-(6-(trifluoromethyl)pyrimidin-4-yl)phenyl)-6,7-diazaspiro[4.5]dec-9-ene-9-carboxamide], the IC50 stood at 2.2 µM.

For the compound `CN1N(Cc2ccc(OCCN3CCN(CCCO)CC3)c(F)c2F)C(=O)C(C(=O)Nc2ccc(C(F)(F)F)cc2-c2cc(C(F)(F)F)ncn2)=C(O)C12CCC2` [Example 362], the IC50 is 18.8 µM. For `COCCOCCOc1ccc(CN2C(=O)C(C(=O)Nc3ccc(C(F)(F)F)cc3-c3cc(C(F)(F)F)ncn3)=C(O)C3(CCC3)N2C)c(F)c1F` [Example 401, 6-[[2,3-Difluoro-4-[2-(2-methoxyethoxy)ethoxy]phenyl]methyl]-9-hydroxy-5-methyl-7-oxo-N-[4-(trifluoromethyl)-2-[6-(trifluoromethyl)pyrimidin-4-yl]phenyl]-5,6-diazaspiro[3.5]non-8-ene-8-carboxamide], the IC50 amounted to 14.5 µM. For the compound `COCCN1CCN(CCOc2ccc(CN3C(=O)C(C(=O)Nc4ccc(C(F)(F)F)cc4-c4cc(C(F)(F)F)ncn4)=C(O)C4(CCCC4)N3C)c(F)c2F)CC1` [Example 377], the IC50 worked out at 8.7 µM. Regarding `COCCN(C)CCN(c1ccc(CN2C(=O)C(C(=O)Nc3ccc(C(F)(F)F)cc3-c3cc(C(F)(F)F)ncn3)=C(O)C3(CCCC3)N2C)c(F)c1F)C(C)C` [Example 445], the IC50 worked out at 9.2 µM. Consider `CN1N(Cc2ccc(OCCCCOC[C@H](O)CO)c(F)c2F)C(=O)C(C(=O)Nc2ccc(C(F)(F)F)cc2-c2ccc(C(F)(F)F)nc2)=C(O)C12CCCC2` [Example 387], for which the IC50 was determined as 10.7 µM. `C[C@@H]1COC[C@H](C)N1CCOc1ccc(CN2C(=O)C(C(=O)Nc3ccc(C(F)(F)F)cc3-c3cc(C(F)(F)F)ncn3)=C(O)C3(CCCC3)N2C)c(F)c1F` [Example 370]: the IC50 is 18.2 µM. With `COCCN(C)CCOCCOCCOc1ccc(CN2C(=O)C(C(=O)Nc3ccc(C(F)(F)F)cc3-c3cc(C(F)(F)F)ncn3)=C(O)C3(CCCC3)N2C)c(F)c1F` [Example 430], the IC50 was found to be 4.6 µM. Turning to `COCCCN(C)C(=O)c1cc(CN2C(=O)C(C(=O)Nc3ccc(C(F)(F)F)cc3-c3cc(C(F)(F)F)ncn3)=C(O)C3(CCCC3)N2C)c(F)c(F)c1OCCN(C)CCOC` [Example 438], the IC50 came to 21.9 µM. Take `CN1CCN(CCOc2ccc(CN3C(=O)C(C(=O)Nc4ccc(C(F)(F)F)cc4-c4cc(C(F)(F)F)ncn4)=C(O)C4(CCC4)N3C)c(F)c2F)CC1=O` [Example 359]: the IC50 came out at 18.4 µM. As for `CN1N(Cc2ccc(OCCCCOC[C@H](O)CO)c(F)c2F)C(=O)C(C(=O)Nc2ccc(C(F)(F)F)cc2-c2cc(C(F)(F)F)ncn2)=C(O)C12CCC2` [Example 390], the IC50 was 7.8 µM. With `CN(C[C@H](O)[C@@H](O)[C@H](O)[C@H](O)CO)C(=O)CCOCCOCCOCCOc1ccc(CN2C(=O)C(C(=O)Nc3ccc(C(F)(F)F)cc3-c3cc(C(F)(F)F)ncn3)=C(O)C3(CCCC3)N2C)c(F)c1F` [Example 423], the IC50 is 20 µM.

The values above are taken from US9499553B2 (CHUGAI SEIYAKU KABUSHIKI KAISHA, priority 2013, dated 2016).
